According to US20130023504A1, “Modulation of Prostaglandin/Cyclooxygenase Metabolic Pathways” (HUNTER-FLEMING LIMITED, priority 2006, published 2013):
Several values for one entry are separate records, joined by “and”; a condition that tells them apart may be missing. Equal values may be shown once.

Test system: rat sensory neurones
Experiment: Cisplatin-induced loss of neurite density in primary dorsal root ganglia sensory neurones (anti β-Tubulin)
Type: cell-based
Settings: for % Control without cisplatin (neurite length) / Mean neurite length: cisplatin 3 μg/ml
Method: Primary cultures of dissociated dorsal root ganglia sensory neurones were incubated with 3 μg/ml cisplatin, with and without 7β-OH EPIA for 48 hours and 72 hours and the following parameters were evaluated:
neurite network density stained with an anti 8-Tubulin antibody
Rat sensory neurones were prepared according to the method described by Hall et al 1997 [Hall et al. (J. Neurosci. 1997 Apr. 15; 17(8); 2775-84]. Briefly, a female rat (15 days gestation) was killed by cervical dislocation (Rats Wistar; Janvier, Le Genest-St-lsle, France) and the foetuses removed from the uterus. Their spinal cords with the dorsal root ganglia (DRG) were removed and placed in ice-cold medium of Leibovitz (L15, Fisher 11415-049) containing Penicillin 50 UI/ml-Streptomycin 50 μg/ml (PS, 1%) and bovine serum albuminutes (BSA 1%, Sigma A6003). The DRG were recovered and dissociated by trypsinisation for 20 minutes at 37° C. (trypsin EDTA 10×, 10%, Fisher 15400054) diluted in PBS without calcium and magnesium (Fisher 2007-03). The reaction was stopped by addition of Dulbecco modified Eagle medium (DMEM, Fisher 21969-035) containing DNase I grade II (0.1 mg/ml Roche diagnostic 104159) and foetal bovine serum (FBS 10%, Fisher 10270-098). The cell suspension was triturated with a 10 ml pipette and centrifuged at 350×g for 10 minutes at room temperature. The pellet of dissociated cells was then resuspended in defined culture medium.
Viable cells were counted in a Neubauer cytometer using the trypan blue exclusion test (Sigma) and seeded at a density of 30 000 cells/well in 96 well-plates (Nunc). Wells were pre-coated with poly-L-lysine (10 μg/ml, Sigma P2636) in ultra pure sterile water (Merck Eurolab 60759.01).
Cells were allowed to adhere for 2 h and maintained in a humidified incubator at 37° C. in 5% CO2/95% air atmosphere.
After 5 days of culture, the culture medium was changed into a defined culture medium following the different conditions described below:
Test compound 7β-OH EPIA (1 nM, 10 nM and 100 nM)+cisplatin (3 μg/ml)
Reference compound NGF (10 ng/ml)+cisplatin (3 μg/ml)
Six wells per condition were carried out to assess neuronal survival. After 48 hours and 72 hours of incubation, the neuronal cells were fixed for 5 minutes in an ethanol/acetic acid solution (95%/5%) at −20° C. and rinsed 3 times in PBS.
Cell bodies of sensory neurones were labelled by monoclonal anti MAP-2 antibody (Sigma M4403) and the neurite of sensory neurones were labelled by monoclonal β-Tubulin antibody (Sigma T8660). These antibodies were diluted at 1:400 in incubation solution (PBS with 5% of FCS and 0.1% of saponin, Sigma S-7900). These antibodies specifically label neurone cell bodies and neuritis, respectively.
After 2 hours of incubation, the cells were washed in PBS and incubated with Alexa Fluor 488 goat anti mouse IgG (Molecular Probes A11001) diluted at 1:300 in incubation solution to reveal the MAP-2 and the β-Tubulin antibodies. Cell nuclei were stained with a fluorescent marker (Hoechst staining solution, SIGMA H6024, 1 μg/ml in incubation solution during 1 hour).
For each condition, 2 pictures per well (12 pictures per condition) were taken using In Cell Analyzer 1000 (Amersham Biosciences) controlled by the computer software In Cell Analyzer 1000 3.2. For the MAP-2 labelling, the magnification was ×10, for the β-Tubulin labelling, the magnification was ×20. For each labelling, all the images were taken in the same conditions.
Analysis of the number of cell bodies labelled with anti-MAP-2 antibodies, and total length of neurites labelled with anti β-Tubulin antibodies, were carried out using In Cell Analyzer 1000 3.2.Workstation software. The results were expressed in percentage compared to the vehicle. The comparisons of each group were carried out using the unpaired T test.

CC12CCC3C(C1CCC2=O)[C@@H](O)C[C@H]1C[C@@H](O)CCC31C (stereo partly drawn) [Compound 7β-OH-EPIA, 7β-hydroxy-EPIAndrosterone]
reduction of cisplatin-induced toxicity (neurite loss) (1 nM, 48 hours): 90.7%
reduction of cisplatin-induced toxicity (neurite loss) (1 nM, 72 hours): 70.8%
% Control without cisplatin (neurite length) (1 nM, 48 hours): 99%
Mean neurite length (1 nM, 48 hours): 5378 μm and 5377.89 μm
% Control without cisplatin (neurite length) (1 nM, 72 hours): 93%
Mean neurite length (1 nM, 72 hours): 4948 μm and 4947.99 μm
reduction of cisplatin-induced toxicity (neurite loss) (10 nM, 48 hours): 101%
% Control without cisplatin (neurite length) (10 nM, 48 hours): 102%
Mean neurite length (10 nM, 48 hours): 5549 μm and 5549.41 μm
% Control without cisplatin (neurite length) (10 nM, 72 hours): 80%
Mean neurite length (10 nM, 72 hours): 4275.04 μm
% Control without cisplatin (neurite length) (100 nM, 48 hours): 81%
Mean neurite length (100 nM, 48 hours): 4442.51 μm
% Control without cisplatin (neurite length) (100 nM, 72 hours): 77%
Mean neurite length (100 nM, 72 hours): 4080.89 μm
